The text below walks through data of patent US20110300154A1, “TREATMENT OF AIRWAY HYPERREACTIVITY” (CHILDREN'S MEDICAL CENTER CORPORATION, priority 2007, published 2011).

Entries after “also recorded” stand apart in the source; their conditions may differ.

Test [1] deals with iNKT cells. To be noted: cited from earlier work.
Test [2] deals with iNKT cells. The experiment in a line: AHR (lung resistance to methacholine) after nebulized α-GalCer challenge, cross-over design. Format: in vivo, cynomolgus monkeys. The source says: (§1) Four monkeys were challenged with α-GalCer or vehicle using a cross-over design (approved by animal care and use committees at the Children's Hospital Boston and the Charles River Laboratory), which minimized the effects of genetic variation and the differing past histories in each of the outbred monkeys. […] Each adult cynomolgus monkey was anesthetized, intubated and challenged with nebulized α-GalCer or vehicle. For safety reasons and to avoid any possible toxic effects of α-GalCer that might cause AHR, a dose escalation approach was used, starting with a very low dose of α-GalCer (150 μg/m^2), similar to the lowest doses used intravenously in Phase I safety studies in humans with solid tumors. Only one dose of α-GalCer was administered to the monkeys before evaluation of AHR, because following activation with α-GalCer, iNKT cells become anergic temporarily (53). 24 hours after challenge, the monkeys were reintubated and assessed for AHR by measuring lung resistance (RL) in response to increasing concentrations of methacholine.

Test [3] has as its system iNKT cells. Put plainly: BAL fluid secondary outcomes after α-GalCer challenge. It counts as in vivo, cynomolgus monkeys. To be noted: monkeys, after α-GalCer vs vehicle.
Source text: as §1

As to `CCCCCCCCCCCCCCCCCCCCCCCCCC(=O)N[C@@H](CO[C@H]1O[C@H](CO)[C@H](O)[C@H](O)[C@H]1O)[C@H](O)[C@H](O)CCCCCCCCCCCCCC` [α-GalCer, α-GalactosylCeramide], in test [1] (administered into the lungs / intranasally), the “induction of AHR in wildtype / naïve mice” value is on record as “causes AHR; also recorded: results in the development of AHR”. For the same molecule, in test [1] (administered into the lungs), the “induction of AHR / effects in iNKT (NKT) cell deficient mice” value is recorded as “no effects”. Moreover, the “induction of AHR in class II−/− mice (lack conventional CD4+ T cells)” value in test [1] (without allergen administration) is on record as “functioned to induce AHR”. Also, in test [2] (combined data of four monkeys, highest dose of methacholine, paired T test p=0.0003), the “percentage change in lung resistance (RL) from baseline compared to vehicle control” value is reported as “significantly higher”. In test [2] (first very low inhaled dose 150 μg/m^2, 24 h after challenge, four monkeys), the “AHR compared to challenge with vehicle control, monkeys responding” value was “three of the four monkeys developed significantly increased AHR”. Besides, the “AHR response of monkey B (non-responder to first dose)” value in test [2] (higher dose 600 μg/m^2, 24 h after challenge) is “developed a significant AHR response”. In test [2] (monkeys, α-GalCer challenge in the absence of ozone or allergen), the “induction of airway hyperreactivity (AHR)” value is “induced AHR; also recorded: resulted in the development of significant AHR; also recorded: induces airway hyperreactivity”. For the same molecule, in test [3], the “increased IL-4 in the BAL fluid (secondary outcome)” value was “did not reach statistical significance”, the “increased eosinophils in the BAL fluid (secondary outcome)” value is “did not reach statistical significance”, the “increased iNKT cells in the BAL fluid (secondary outcome)” value was “did not reach statistical significance” and the “increased neutrophils in the BAL fluid (secondary outcome)” value is listed as “did not reach statistical significance”.
